Test results published in publication PMC9909315, “SY-707, an ALK/FAK/IGF1R inhibitor, suppresses growth and metastasis of breast cancer cells” (Acta Biochimica et Biophysica Sinica, 2022).
Where two headings read alike, the source gives them in different places.

Assays:
[1] = test system: 4T1 breast cancer metastasis to the lung; assay: Metastasis analysis in vivo (lung nodules, 4T1 model); parameters: species or system nude mice; settings: 4T1, treatment alone: SY-707 100 mg/kg/day PO; paclitaxel 10 or 20 mg/kg/week IV; 20 days; not statistically different
Description: Metastasis was detected in mouse lungs after the mice were sacrificed at the last dosing day. The lungs of each mouse were excised immediately and fixed with 4% paraformaldehyde for 24 h, then the lungs were photographed (three photographs per section per mouse) and the metastatic nodules in the lungs were manually counted and the data was analyzed for compound evaluation.
Mice were inoculated with 4T1 cells in PBS at right and left flanks expect the normal control group ( Figure 6A), SY-707 with or without paclitaxel was administered for 20 days when tumor volumes reached 150–300 mm ^3. The mice were sacrificed on the last day of drug administration, then the lungs were collected and metastatic nodules were counted manually for the evaluation of metastasis of 4T1 breast cancer.
The normal group (A) and the vehicle group which treatment with 20% SBE (B) were control. Mouse lungs were taken at the last day of treatment and fixed with 4% paraformaldehyde for 24 h, then the lungs were photographed and the metastatic nodules were counted manually for further analysis. *P<0.05, **P<0.01.

[2] = test system: phosphorylation of FAK at Tyr397 in T47D tumor tissue; assay: Pharmacokinetics/pharmacodynamics study in T47D xenograft model; assay type: in vivo, nude mice
Description: Figure5 Anti-tumor activities of SY-707 in breast cancer xenograftsXenograft tumors were established by inoculating T47D (A, B, C) cells or 4T1 (D) cells into the nude mice. Oral administration of SY-707 alone or combined with paclitaxel was initiated when tumors reached an average of approximately 150–300 mm3 in volume and continued through the experiment. Tumor volume was measured on the indicated days with the mean tumor volume±SD indicated for each group (10 mice/group). Each treatment group was compared to vehicle group with t-test. *P<0.05, **P<0.01. (B) The tumor tissues were harvested at 2 h after the last dosage of SY-707, compound levels in tumor tissues or plasma and the phosphorylation levels of FAK were analyzed.
To explore the relationship between the in vivo anti-tumor growth activities and the inhibition on FAK signaling, pharmacokinetics/pharmacodynamics studies were performed in T47D xenograft model.

[3] = test system: phosphorylation of FAK at Tyr397; assay: Western blot of FAK phosphorylation in MCF-7 cells; assay type: cell-based; settings: MCF-7, 1 h treatment
Description: Equal amounts of cell lysates were loaded onto 10% SDS-PAGE gel and separated by electrophoresis. Separated proteins were then electro-transferred onto polyvinylidene fluoride (PVDF) membranes (Millipore, Bedford, USA). After being blocked with Tris-buffered saline containing 0.1% Tween-20 (TBST) and 5% bovine serum albumin (BSA), the membranes were incubated with primary antibodies at room temperature for 2 hours or at 4°C, then washed with TBST, followed by treatment with horseradish peroxidase (HRP)-conjugated goat anti-rabbit IgG secondary antibody at room temperature for another 1 h. The targeted protein bands were visualized using an enhanced chemiluminescence (ECL) plus system (Thermo Fisher Scientific). Primary antibodies against phospho-FAK (3283, 1:1000 dilution), phospho-ERK (4377, 1:2000 dilution), phospho-AKT (4060, 1:2000 dilution), FAK (3285, 1:1000 dilution), AKT (6703, 1:1000 dilution) and β-Actin (5125, 1:10,0000 dilution) were purchased from Cell Signaling Technology (Beverly, USA) and the HRP-conjugated goat anti-rabbit IgG (ZDR-5306, 1:10,000 dilution) was purchased from Jackson (West Grove, USA ).
Cells were cultured in 6-well plates and treated with the indicated concentrations of SY-707 for 1 h before stimulation with or without 100 ng/mL IGF1 for 10 min. Control cells received the drug vehicle with 0.1% DMSO. […]

[4] = Pharmacokinetic study; assay type: in vivo, beagle dogs; settings: serum, Beagle dog, 5 mg/kg PO; for CL/F: read-out: Cl_F_obs (converted); for MRT inf: read-out: MRT INF_obs
Description: (§1) Female SD rats (5-6 weeks old) or beagle dogs were administrated with SY-707 at a single dose of 5 mg/kg, and blood samples were taken sequentially from 2 min to 24 h after compound administration. […] The serum samples were collected by centrifugation and stored at –80 °C. Compound concentrations in the sample serums were further analyzed with an API-4000 LC-MS/MS system (Applied Biosystem, Foster City, USA), and pharmacokinetic parameters ( T 1/2, T max, C max, AUC 0-INF, Cl_F_obs, MRT INF_obs, and F(%)) were calcuated using the WinNonlin software (version 6.2; WinNonlin Professional, Pharsight, USA).

[5] = Pharmacokinetic study; assay type: in vivo, SD rats; settings: SD, serum, Rat, 5 mg/kg PO; for CL/F: read-out: Cl_F_obs (converted); for MRT inf: read-out: MRT INF_obs
Description: as §1, with “Female SD rats (5-6 weeks old) or beagle dogs were administrated with SY-707 at a single dose of 5 mg/kg, and blood samples were taken sequentially from 2 min to 24 h after compound administration.” left out

[6] = test system: T47D cells; assay: Would healing (migration) assay; assay type: cell-based; settings: 24 h, vs control
Description: (§2) Totally, 5×10 ^5 cells were plated into each well of 6-well plates, and cultured to 70%–80% confluence, then the cell monolayer was gently and slowly scratched with a new 1-mL pipette tip across the center of the well. After scratching, the wells were gently washed with PBS twice to remove the detached cells, and replenished with fresh medium containing indicated concentration of compounds. The treated cells were allowed to grow for additional 24 h, and images were capturedunder a microscope. The migration distance were calculated and analyzed to evaluate the effects of compounds.

[7] = test system: MCF-7 cells; assay: Would healing (migration) assay; assay type: cell-based; settings: MCF-7, 24 h, vs control
Description: as §2

For `COc1cc(N2CCC(N3CCN(C)CC3)CC2)ccc1Nc1nc2c(c(Nc3ccccc3S(=O)(=O)NC(C)C)n1)CCN2` [SY-707, N-isopropyl-2-((2-((2-methoxy-4-(4-(4-methylpiperazin-1-yl)piperidin-1-yl)phenyl)amino)-6,7-dihydro-5H-pyrrolo[2,3-d]pyrimidin-4-yl)amino)benzenesulfonamide], the “number of metastatic nodules in the lungs vs vehicle group” value [1] was “reduced the number of metastatic nodules”, the “concentration in tumor samples compared to plasma” value ([2]; 2 h after last dosage) was “higher concentrations of SY-707 were also detected in tumor samples” and the “phosphorylation level of FAK at Tyr397 in tumor” value ([2]; tumor harvested 2 h after last dosage, vs control group) was “significantly decreased”. The “phosphorylation of FAK at Tyr397” value [3] was “dose-dependently suppressed”, the AUC(0-inf) ([4]; both sexes, All) was 459 ng·h/mL and the Cmax ([4]; both sexes, All) was 36 ng/mL. For the same compound, the Tmax ([4]; both sexes, All) was 2.83 h, the bioavailability ([4]; both sexes, All) was 21.1% and the half-life ([4]; both sexes, All) was 9.72 h. It also gave a CL/F ([4]; both sexes, All) of 195 mL/min/kg, an MRT inf ([4]; both sexes, All) of 13.6 h and an AUC(0-inf) ([4]; Female) of 438 ng·h/mL. The Cmax ([4]; Female) was 34.2 ng/mL, the Tmax ([4]; Female) was 2.67 h and the bioavailability ([4]; Female) was 18.8%. It also gave a half-life ([4]; Female) of 10.1 h, a CL/F ([4]; Female) of 202 mL/min/kg and an MRT inf ([4]; Female) of 13.7 h. For the same compound, the AUC(0-inf) ([4]; Male) was 479 ng·h/mL, the Cmax ([4]; Male) was 37.8 ng/mL and the Tmax ([4]; Male) was 3 h. The bioavailability ([4]; Male) was 23.8%, the half-life ([4]; Male) was 9.33 h and the CL/F ([4]; Male) was 188 mL/min/kg. It also gave an MRT inf ([4]; Male) of 13.6 h, an AUC(0-inf) ([5]; Female) of 8590 ng·h/mL and a Cmax ([5]; Female) of 639 ng/mL. It also gave a Tmax ([5]; Female) of 4.33 h, a bioavailability ([5]; Female) of 33.2% and a half-life ([5]; Female) of 11.2 h. For the same compound, the CL/F ([5]; Female) was 9.77 mL/min/kg, the MRT inf ([5]; Female) was 13.8 h and the AUC(0-inf) ([5]; Male) was 13300 ng·h/mL. For the same compound, the Cmax ([5]; Male) was 909 ng/mL, the Tmax ([5]; Male) was 3.33 h and the bioavailability ([5]; Male) was 38.3%. For the same compound, the half-life ([5]; Male) was 13 h, the CL/F ([5]; Male) was 6.3 mL/min/kg and the MRT inf ([5]; Male) was 15.5 h. For the same compound, the AUC(0-inf) ([5]; both sexes, All) was 11000 ng·h/mL, the Cmax ([5]; both sexes, All) was 774 ng/mL and the Tmax ([5]; both sexes, All) was 3.83 h. For the same compound, the bioavailability ([5]; both sexes, All) was 36.2%, the half-life ([5]; both sexes, All) was 12.1 h and the CL/F ([5]; both sexes, All) was 8.03 mL/min/kg. For the same compound, the MRT inf ([5]; both sexes, All) was 14.7 h, the migration distance [6] was “significantly decreased” and the migration distance [7] was “significantly decreased”.
